From US8969516B2, “Method of hydrolysis of peptide bond” (priority 2006, dated 2015)

What was measured:
proteinase = test: Activity of SPI2 released from the recombinant polypeptide (Chavira et al.); type: biochemical; details: after Ni^2+ cleavage on Ni-NTA-agarose, 100 mM Hepes pH 8.2, 50° C., 19 hours
Protocol: The recombinant polypeptide from Example 4 (100 μl of a 140 μM solution) was loaded on 200 μl of Ni-NTA-agarose (Invitrogen), according to the manufacturer's instruction, and incubated in 100 mM Hepes buffer, pH 8.2 with 5 mM Ni^2+ at 50° C. without shaking. The incubation buffer (500 μl) was removed after 19 hours. Then the unreacted polypeptide and the cleaved off SRHW-AP-HHHHHH domain were washed from the column with two 400 μl portions of 200 mM imidazole, pH 7.4. The samples were analyzed by HPLC under conditions given in Example 4. FIG. 4 presented chromatograms of the control recombinant polypeptide, incubation buffer and both wash fractions. Masses of polypeptides were measured by ESI-MS. The yield of purified SPI2 was 88%. SPI2 obtained from this procedure was fully active, as determined according to […] et al., Anal. Biochem. 1984, 136, 446-450.

[1] = Quantitative kinetic studies of Ni^2+ dependent peptide hydrolysis by HPLC; type: physicochemical; details: 1 mM peptide, 1 mM Ni^2+, 45° C., pH 8.2 (20 mM Tris)
Protocol: The title octapeptides were synthesised according to a typical Fmoc protocol (Fields, Meth. Enzymol. Vol. 289). The list of variable BXHZ sequences is given in Table 2, along with 1st order rate constants determined at 45° C., pH 8.2 (20 mM Tris buffer) for 1 mM peptide and Ni^2+ concentrations. […] The substrate and product peaks were identified by MALDI-TOF MS.

[2] = MALDI-TOF screening of Ni^2+ dependent hydrolysis in a combinatorial peptide library; type: physicochemical; details: Ni^2+ 2 mM, pH 8.2, 10 mM Tris, score=24/tm
In short: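 MALDI-TOF spectra taken at 2, 4, 6 and 8 h tracked the appearance of Ser/Thr-X-His-Z-Lys-Phe-Leu-NH2 cleavage products and the fall in substrate signals. Reactions: 1 mM peptide mixture, 2 mM Ni^2+, 10 mM Tris pH 8.2, at 37 or 45 °C; X/Z substitutions ranked by summed scores.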

[3] = Dependence of rate of hydrolysis of the Ala-Ser bond on buffer and Ni^2+ excess (HPLC); type: physicochemical; details: pH 8.2, 1 mM peptide; for κ ± S.D., 1st order rate constant for the hydrolysis: 25° C., 1.2 mM Ni^2+
Protocol: The title peptide was synthesised according to a standard Fmoc protocol (Fields, Meth. Enzymol. Vol. 289). The pH dependence of the formation of the active complex of the title peptide, represented by the structure (III) in Scheme 2, was determined by potentiometry at 25° C., as described in Krezel et al., Chem. Res. Toxicol. 2003, 16, 855-864. The rate of peptide hydrolysis was studied by HPLC (as in Example 2) in a series of mixed phosphate/Tris/Borax buffers (40/20/20 mM) at 25° C. and pH between 6 and 12.5, with peptide and Ni^2+ concentrations equal to 1 mM. As presented in FIG. 1, the rate of hydrolysis matched the formation of the active complex quantitatively.
The dependence of the rate of hydrolysis on the buffer used was studied at 25° C. separately in 20 mM Tris, Hepes and sodium phosphate buffers, all at pH 8.2, for 1 mM peptide and 1.2 mM Ni^2+.
The dependence of the rate of hydrolysis of the title peptide on the molar ratio of Ni^2+ to peptide was studied at 25° C. and pH 8.2, for 1 mM peptide. The reaction rate constant k was 4.3±0.2 s^−1×10^−5 for the Ni^2+ to peptide molar ratio of 1.2 and 4.72±0.01 s^−1×10^−5 for the Ni^2+ to peptide molar ratio of 5.

[4] = CH3CO-Gly-Ala-Ser-X-His-Z-Lys-Phe-Leu-NH2 library, 37° C.
[5] = CH3CO-Gly-Ala-Ser-X-His-Z-Lys-Phe-Leu-NH2 library, 45° C.
[6] = CH3CO-Gly-Ala-Thr-X-His-Z-Lys-Phe-Leu-NH2 library, 37° C.
[7] = CH3CO-Gly-Ala-Thr-X-His-Z-Lys-Phe-Leu-NH2 library, 45° C.

Substance	hydrolysis score from MALDI-TOF screening [2, 4]	hydrolysis score from MALDI-TOF screening [2, 5]	hydrolysis score from MALDI-TOF screening [2, 6]	hydrolysis score from MALDI-TOF screening [2, 7]	other results
SPI2: single domain Kazal type proteinase inhibitor, released from (SPI2)-SRHW-AP-HHHHHH recombinant polypeptide	–	–	–	–	activity of SPI2 obtained from cleavage on solid support (proteinase): fully active
Ac-GASRHWKFL-NH2 [-SRHW-]	–	–	–	–	k ± S.D., 1st order rate constant for the hydrolysis [1]: 28.8 ± 0.8 s^−1 · 10^−5
Ac-GATHHKKFL-NH2 [-THHK-]	–	–	–	–	k ± S.D., 1st order rate constant for the hydrolysis [1]: 1.01 ± 0.09 s^−1 · 10^−5
Ac-GASWHIKFL-NH2 [-SWHI-]	–	–	–	–	k ± S.D., 1st order rate constant for the hydrolysis [1]: 3 ± 1 s^−1 · 10^−5
Ac-GASRHWKFL-NH2 [SRHW, CH3CO-Gly-Ala-Ser-Arg-His-Trp-Lys-Phe-Leu-NH2]	12 (a score of 12, if it was seen to be partially hydrolysed at 2 hours)	12 (a score of 12, if it was seen to be partially hydrolysed at 2 hours)	–	–	κ ± S.D., 1st order rate constant for the hydrolysis ([3]; 20 mM Hepes): 5.9 ± 0.8 s^−1 × 10^−5; κ ± S.D., 1st order rate constant for the hydrolysis ([3]; 20 mM Tris): 4.8 ± 0.5 s^−1 × 10^−5; κ ± S.D., 1st order rate constant for the hydrolysis ([3]; 20 mM phosphate): 0.74 ± 0.09 s^−1 × 10^−5; reaction rate constant k ([3]; Ni^2+ to peptide molar ratio of 1.2, 25° C.): 4.3±0.2 s^−1×10^−5; reaction rate constant k ([3]; Ni^2+ to peptide molar ratio of 5, 25° C.): 4.72±0.01 s^−1×10^−5
Ac-GASYHQKFL-NH2 [SYHQ]	0 (a score of 0 if no trace of the product of hydrolysis was seen after 8 hours of incubation)	0 (a score of 0 if no trace of the product of hydrolysis was seen after 8 hours of incubation)	–	–	–
Ac-GASSHVKFL-NH2 [SSHV]	3 (a score of 3 for detection at 8 hours)	4 (a score of 4 for detection at 6 hours)	–	–	–
Ac-GATTHGKFL-NH2 [TTHG]	–	–	0 (a score of 0 if no trace of the product of hydrolysis was seen after 8 hours of incubation)	0 (a score of 0 if no trace of the product of hydrolysis was seen after 8 hours of incubation)	–
Ac-GASTHSKFL-NH2 [STHS]	0 (a score of 0 if no trace of the product of hydrolysis was seen after 8 hours of incubation)	0 (a score of 0 if no trace of the product of hydrolysis was seen after 8 hours of incubation)	–	–	–
Ac-GATRHGKFL-NH2 [TRHG]	–	–	0 (a score of 0 if no trace of the product of hydrolysis was seen after 8 hours of incubation)	0 (a score of 0 if no trace of the product of hydrolysis was seen after 8 hours of incubation)	–
Ac-GASHHTKFL-NH2 [SHHT]	0 (a score of 0 if no trace of the product of hydrolysis was seen after 8 hours of incubation)	0 (a score of 0 if no trace of the product of hydrolysis was seen after 8 hours of incubation)	–	–	–
Ac-GASVHRKFL-NH2 [SVHR]	3 (a score of 3 for detection at 8 hours)	3 (a score of 3 for detection at 8 hours)	–	–	–
Ac-GASTHDKFL-NH2 [STHD]	0 (a score of 0 if no trace of the product of hydrolysis was seen after 8 hours of incubation)	0 (a score of 0 if no trace of the product of hydrolysis was seen after 8 hours of incubation)	–	–	–
Ac-GATAHMKFL-NH2 [TAHM]	–	–	0 (a score of 0 if no trace of the product of hydrolysis was seen after 8 hours of incubation)	0 (a score of 0 if no trace of the product of hydrolysis was seen after 8 hours of incubation)	–
Ac-GATAHAKFL-NH2 [TAHA]	–	–	0 (a score of 0 if no trace of the product of hydrolysis was seen after 8 hours of incubation)	0 (a score of 0 if no trace of the product of hydrolysis was seen after 8 hours of incubation)	–
Ac-GASGHKKFL-NH2 [SGHK]	0 (a score of 0 if no trace of the product of hydrolysis was seen after 8 hours of incubation)	3 (a score of 3 for detection at 8 hours)	–	–	–
Ac-GATLHLKFL-NH2 [TLHL]	–	–	0 (a score of 0 if no trace of the product of hydrolysis was seen after 8 hours of incubation)	0 (a score of 0 if no trace of the product of hydrolysis was seen after 8 hours of incubation)	–
Ac-GATAHTKFL-NH2 [TAHT]	–	–	0 (a score of 0 if no trace of the product of hydrolysis was seen after 8 hours of incubation)	0 (a score of 0 if no trace of the product of hydrolysis was seen after 8 hours of incubation)	–
Ac-GATFHLKFL-NH2 [TFHL]	–	–	0 (a score of 0 if no trace of the product of hydrolysis was seen after 8 hours of incubation)	0 (a score of 0 if no trace of the product of hydrolysis was seen after 8 hours of incubation)	–
Ac-GASMHEKFL-NH2 [SMHE]	0 (a score of 0 if no trace of the product of hydrolysis was seen after 8 hours of incubation)	0 (a score of 0 if no trace of the product of hydrolysis was seen after 8 hours of incubation)	–	–	–
